Test results from ChEMBL document CHEMBL5233233, “Histone deacetylase 3 (HDAC3) inhibitors as anticancer agents: A review” (Eur J Med Chem, 2020).

What was measured:
Histone deacetylase 1 [1] = target: T1, Histone deacetylase 1 (Homo sapiens, UniProt Q13547); test: Inhibition of HDAC1 (unknown origin) using acetylated 7-amino-4-methylcoumarin (AMC) as peptide substrate measured after 20 mins by fluorescence based analysis
Histone deacetylase 2 [2] = target: T2, Histone deacetylase 2 (Homo sapiens, UniProt Q92769); test: Inhibition of HDAC2 (unknown origin) using acetylated 7-amino-4-methylcoumarin (AMC) as peptide substrate measured after 20 mins by fluorescence based analysis
T2 sequence (Q92769 whole entry): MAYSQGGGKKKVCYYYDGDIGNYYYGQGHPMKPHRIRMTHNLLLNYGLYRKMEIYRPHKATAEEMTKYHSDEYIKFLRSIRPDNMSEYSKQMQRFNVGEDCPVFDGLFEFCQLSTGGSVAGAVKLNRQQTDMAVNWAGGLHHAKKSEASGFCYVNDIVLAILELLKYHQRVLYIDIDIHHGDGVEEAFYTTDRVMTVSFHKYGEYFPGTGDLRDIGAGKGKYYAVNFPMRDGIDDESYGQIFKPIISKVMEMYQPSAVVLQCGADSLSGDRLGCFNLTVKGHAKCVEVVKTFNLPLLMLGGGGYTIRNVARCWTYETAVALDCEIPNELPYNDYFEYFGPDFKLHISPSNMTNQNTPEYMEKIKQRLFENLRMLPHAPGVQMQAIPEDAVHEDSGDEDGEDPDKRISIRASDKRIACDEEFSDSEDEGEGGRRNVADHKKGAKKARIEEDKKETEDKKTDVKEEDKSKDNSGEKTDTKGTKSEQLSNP

Histone deacetylase 3 [3] = target: T3, Histone deacetylase 3 (Homo sapiens, UniProt O15379); test: Inhibition of HDAC3 (unknown origin) using acetylated 7-amino-4-methylcoumarin (AMC) as peptide substrate measured after 20 mins by fluorescence based analysis
T3 sequence (O15379 whole entry): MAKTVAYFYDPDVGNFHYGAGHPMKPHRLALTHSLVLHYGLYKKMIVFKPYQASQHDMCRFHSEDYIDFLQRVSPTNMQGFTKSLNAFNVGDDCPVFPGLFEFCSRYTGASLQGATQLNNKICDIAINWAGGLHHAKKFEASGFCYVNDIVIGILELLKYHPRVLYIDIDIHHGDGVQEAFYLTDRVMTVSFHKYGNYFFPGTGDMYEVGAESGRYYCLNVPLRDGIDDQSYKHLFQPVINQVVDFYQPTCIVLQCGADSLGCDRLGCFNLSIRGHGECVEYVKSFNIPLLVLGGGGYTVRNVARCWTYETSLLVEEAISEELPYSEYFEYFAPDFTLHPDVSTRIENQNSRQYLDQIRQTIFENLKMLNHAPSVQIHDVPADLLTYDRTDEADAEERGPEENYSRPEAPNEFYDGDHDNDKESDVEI

Histone deacetylase 3 [4] = target: T3, Histone deacetylase 3; test: Inhibition of HDAC3 (unknown origin)
Histone deacetylase 2 [5] = target: T2, Histone deacetylase 2; test: Inhibition of HDAC2 (unknown origin)
Histone deacetylase 8 [6] = target: T4, Histone deacetylase 8 (Homo sapiens, UniProt Q9BY41); test: Inhibition of HDAC8 (unknown origin)
T4 sequence (Q9BY41 whole entry): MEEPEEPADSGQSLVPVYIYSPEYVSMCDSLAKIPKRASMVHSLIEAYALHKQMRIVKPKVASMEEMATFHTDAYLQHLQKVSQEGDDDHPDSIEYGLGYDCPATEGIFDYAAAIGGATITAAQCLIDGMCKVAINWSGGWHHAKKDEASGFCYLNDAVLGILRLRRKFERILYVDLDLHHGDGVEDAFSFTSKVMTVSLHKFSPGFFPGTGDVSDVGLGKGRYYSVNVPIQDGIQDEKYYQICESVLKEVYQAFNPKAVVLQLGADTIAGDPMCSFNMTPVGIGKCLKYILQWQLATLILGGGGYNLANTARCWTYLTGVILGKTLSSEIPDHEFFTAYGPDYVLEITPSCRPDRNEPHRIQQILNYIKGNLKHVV

Histone deacetylase 1 [7] = target: T1, Histone deacetylase 1; test: Inhibition of HDAC1 (unknown origin)
Histone deacetylase 1 [8] = target: T1, Histone deacetylase 1; test: Inhibition of HDAC1 (unknown origin) using Boc-Lys (Ac)-AMC as substrate measured after 30 mins by fluorescence based analysis
Histone deacetylase 1 [9] = target: T1, Histone deacetylase 1; test: Inhibition of human HDAC1 using fluorogenic as substrate measured after 30 mins by fluorescence based analysis
Histone deacetylase 3 [10] = target: T3, Histone deacetylase 3; test: Inhibition of human HDAC3 using fluorogenic as substrate measured after 30 mins by fluorescence based analysis
Histone deacetylase = test: Inhibition of human HDAC using human HeLa cell nuclear extract measured after 60 mins by fluorescence assay; assay type: subcellular, Nucleus
Histone deacetylase 3 [11] = target: T3, Histone deacetylase 3; test: Inhibition of human recombinant HDAC3 expressed in baculovirus by using Boc-L-Lys(Ac)-AMC as substrate measured after 24 hrs by fluorescence based analysis
Histone deacetylase 1 [12] = target: T1, Histone deacetylase 1; test: Inhibition of human recombinant HDAC1 expressed in baculovirus by using Boc-L-Lys(Ac)-AMC as substrate measured after 24 hrs by fluorescence based analysis
Histone deacetylase 8 [13] = target: T4, Histone deacetylase 8; test: Inhibition of human recombinant HDAC8 expressed in Escherichia coli BL21 (DE3) cells by using Boc-L-Lys(Ac)-AMC as substrate measured after 24 hrs by fluorescence based analysis
Histone deacetylase 2 [14] = target: T2, Histone deacetylase 2; test: Inhibition of human recombinant HDAC2 expressed in baculovirus by using Boc-L-Lys(Ac)-AMC as substrate measured after 24 hrs by fluorescence based analysis
Histone deacetylase 3 [15] = target: T3, Histone deacetylase 3; test: Inhibition of human HDAC3 using human HeLa cell nuclear extract at 1 uM measured after 60 mins by fluorescence assay; assay type: subcellular, Nucleus
Histone deacetylase 2 [16] = target: T2, Histone deacetylase 2; test: Inhibition of human HDAC2 using human HeLa cell nuclear extract at 1 uM measured after 60 mins by fluorescence assay; assay type: subcellular, Nucleus
Histone deacetylase 1 [17] = target: T1, Histone deacetylase 1; test: Inhibition of human HDAC1 using human HeLa cell nuclear extract at 1 uM measured after 60 mins by fluorescence assay; assay type: subcellular, Nucleus

T1 sequence (Q13547 whole entry): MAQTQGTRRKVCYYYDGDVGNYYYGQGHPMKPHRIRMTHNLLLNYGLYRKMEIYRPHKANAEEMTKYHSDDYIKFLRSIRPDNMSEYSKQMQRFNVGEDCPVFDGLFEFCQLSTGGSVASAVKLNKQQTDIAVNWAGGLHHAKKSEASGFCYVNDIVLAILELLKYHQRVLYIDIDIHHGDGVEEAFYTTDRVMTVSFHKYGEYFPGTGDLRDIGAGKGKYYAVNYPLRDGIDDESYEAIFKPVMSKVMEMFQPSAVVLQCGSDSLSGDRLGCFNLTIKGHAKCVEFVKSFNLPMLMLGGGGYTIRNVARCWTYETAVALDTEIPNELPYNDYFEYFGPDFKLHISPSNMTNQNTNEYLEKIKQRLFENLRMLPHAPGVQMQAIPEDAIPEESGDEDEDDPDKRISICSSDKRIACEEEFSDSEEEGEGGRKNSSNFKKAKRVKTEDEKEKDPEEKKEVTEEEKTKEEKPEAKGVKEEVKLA

Molecule CCCCNNC(=O)c1ccccc1 has an IC50 (Histone deacetylase 1 [1]) greater than 50 µM, an IC50 (Histone deacetylase 2 [2]) greater than 50 µM and an IC50 (Histone deacetylase 3 [3]) greater than 50 µM.
Work on CCC(=O)CCCCC[C@H](NC(=O)N1CCOCC1)c1ncc(-c2cc3ccccc3nc2OC)o1 yielded an IC50 (Histone deacetylase 3 [4]) of 0.007 µM.
Molecule Nc1ccccc1NC(=O)c1ccc(CNc2nc(-c3ccccc3)cs2)cc1 has an IC50 (Histone deacetylase 2 [5]) of 0.085 µM, an IC50 (Histone deacetylase 8 [6]) of 4.1 µM and an IC50 (Histone deacetylase 1 [7]) of 0.93 µM. The IC50 (Histone deacetylase 3 [4]) was 0.012 µM.
In the case of COC(=O)/C=C/c1ccc(OCCCCNc2cc3c([nH]c4ccccc43)c(-c3ccc(OC)cc3)n2)c(OC)c1, the IC50 (Histone deacetylase 1 [8]) is reported as 0.061 µM.
CN(C)c1cccc2c(S(=O)(=O)N[C@H](C(=O)Nc3ccc(C(=O)NO)cc3)c3ccccc3)cccc12 was tested, and the IC50 (Histone deacetylase 1 [9]) was 0.0247 µM, the IC50 (Histone deacetylase 3 [10]) was 0.0244 µM and the IC50 (Histone deacetylase) was 0.0097 µM.
For O=C(CCCCCCNCc1ccc(-c2ccccc2)s1)NO, the IC50 (Histone deacetylase 3 [11]) was 0.038 µM, the IC50 (Histone deacetylase 1 [12]) was 0.048 µM and the IC50 (Histone deacetylase 8 [13]) was 0.55 µM. The IC50 (Histone deacetylase 2 [14]) was 0.69 µM.
With O=C(CCCCCCN(Cc1ccc2ccccc2c1)Cc1ccc2ccccc2c1)NO the IC50 (Histone deacetylase 3 [11]) was 0.95 µM, the IC50 (Histone deacetylase 1 [12]) was 1.1 µM and the IC50 (Histone deacetylase 8 [13]) was 5.4 µM. For the same molecule, the IC50 (Histone deacetylase 2 [14]) was 4.2 µM.
With O=C(NO)c1ccc(NC(=O)[C@@H](NC(=O)c2cccc(Br)c2)c2ccccc2)cc1 the IC50 (Histone deacetylase 1 [9]) was 0.0118 µM, the IC50 (Histone deacetylase 3 [10]) was 0.0085 µM and the IC50 (Histone deacetylase) was 0.0137 µM.
O=C(CCCCCCN(Cc1ccc(-c2ccccc2)s1)Cc1ccc(-c2ccccc2)s1)NO was tested, and the IC50 (Histone deacetylase 3 [11]) was 1.1 µM, the IC50 (Histone deacetylase 1 [12]) was 0.84 µM and the IC50 (Histone deacetylase 8 [13]) was 4.1 µM. For the same molecule, the IC50 (Histone deacetylase 2 [14]) was 3 µM.
For CCC(=O)CCCCC[C@H](NC(=O)C(C)(C)N(C)C)c1ncc(-c2cc3ccccc3nc2OC)o1, the IC50 (Histone deacetylase 3 [4]) was 0.0006 µM.
In the case of Cc1noc(C)c1-c1ccc2c(c1)c(CCc1ccc(F)cc1)cn2CCCCCC(=O)NO, the IC50 (Histone deacetylase 3 [15]) is reported as 0.017 µM, the IC50 (Histone deacetylase 2 [16]) is reported as 0.946 µM and the IC50 (Histone deacetylase 1 [17]) is reported as 0.259 µM.
With O=C(NNCCCC1CCCC1)c1ccc(Br)cc1 the IC50 (Histone deacetylase 1 [1]) was greater than 50 µM, the IC50 (Histone deacetylase 2 [2]) was greater than 50 µM and the IC50 (Histone deacetylase 3 [3]) was greater than 50 µM.
In the case of Cc1noc(C)c1-c1ccc2c(c1)c(Cc1ccccc1)cn2CCCCCCC(=O)NO, the IC50 (Histone deacetylase 3 [15]) is reported as 0.023 µM, the IC50 (Histone deacetylase 2 [16]) is reported as 0.118 µM and the IC50 (Histone deacetylase 1 [17]) is reported as 0.179 µM.
Work on O=C(CCCCCCN(Cc1cc2ccccc2[nH]1)Cc1cc2ccccc2[nH]1)NO yielded an IC50 (Histone deacetylase 3 [11]) of 1.3 µM, an IC50 (Histone deacetylase 1 [12]) of 0.34 µM and an IC50 (Histone deacetylase 8 [13]) of 4.6 µM. The IC50 (Histone deacetylase 2 [14]) was 3.7 µM.
Molecule O=C(NO)c1ccc(NC(=O)[C@@H](NC(=O)c2ccc(Cl)cc2)c2ccccc2)cc1 has an IC50 (Histone deacetylase) of 0.3486 µM.
Nc1ccccc1NC(=O)c1ccc(-c2cn(CCc3cccc([N+](=O)[O-])c3)nn2)s1 gave an IC50 (Histone deacetylase 2 [5]) greater than 0.1 µM.
O=C(CCCCCCNCc1ccc([N+](=O)[O-])cc1)NO showed an IC50 (Histone deacetylase 3 [11]) of 1 µM, an IC50 (Histone deacetylase 1 [12]) of 0.22 µM and an IC50 (Histone deacetylase 8 [13]) of 2.1 µM. For the same molecule, the IC50 (Histone deacetylase 2 [14]) was 2.9 µM.
Work on O=C(NO)c1ccc(NC(=O)[C@@H](NS(=O)(=O)c2cccc3ccccc23)c2ccccc2)cc1 yielded an IC50 (Histone deacetylase) of 0.0156 µM.
O=C(CCCCCCNCc1cc2ccccc2[nH]1)NO showed an IC50 (Histone deacetylase 3 [11]) of 0.025 µM, an IC50 (Histone deacetylase 1 [12]) of 0.061 µM and an IC50 (Histone deacetylase 8 [13]) of 0.62 µM. The IC50 (Histone deacetylase 2 [14]) was 0.26 µM.
